Reference: patent US8148388B2, “2,4 (4,6) pyrimidine derivatives” (Janssen Pharmaceutica, N.V., priority 2004, dated 2012)

Columns and labels:
Format in all cases: biochemical
[1] = target: T1, EGFR-kinase domain (Homo sapiens, UniProt P00533); assay: In vitro inhibition of EGFR (Flash Plate assay); settings: full dose response 1.10^−6M to 1.10^−10M, read-out: C12 EGFR flash Score
T1 construct: 0.5 μg EGFR-kinase domain/well
Procedure: The in vitro inhibition of EGFR was assessed using either the Flash Plate technology or the glass-fiber filter technology as described by Davies, S. P. et al., Biochem J. (2000), 351; p. 95-105. The Flash Plate technology is generally described by B. A. Brown et al. in High Throughput Screening (1997), p. 317-328. Editor(s): Devlin, John P. Publisher: Dekker, New York, N.Y.
In the Flash Plate EGFR kinase reaction assay, a kinase substrate consisting of biotinylated poly(L-glutamic acid-L-tyrosine) (poly(GT)biotin), is incubated with the aforementioned protein in the presence of (^33P) radiolabeled ATP. (^33P) phosphorylation of the substrate is subsequently measured as light energy emitted using a streptavidin-coated Flash Plate (PerkinElmer Life Sciences) by trapping and quantifying the binding of the biotin tagged and radiolabeled substrate.
The EGFR kinase reaction is performed at 30° C. for 60 minutes in a 96-well microtiter FlashPlate (PerkinElmer Life Sciences). For each of the tested compounds a full dose response 1.10^−6M to 1.10^−10M has been performed. IRESSA® and Tarceva™ (erlotinib) were used as reference compounds. The 100 μl reaction volume contains 54.5 mM TrisHCl pH 8.0, 10 mM MgCl2, 100 μM Na3VO4, 5.0 μM unlabeled ATP, 1 mM DTT, 0.009% BSA, 0.8 μCi AT^33P, 0.35 μg/well poly(GT)biotin and 0.5 μg EGFR-kinase domain/well.
The reaction is stopped by aspirating the reaction mixture and washing the plate 3× with 200 μl wash/stop buffer (PBS+100 mM EDTA). After the final wash step 200 μl of wash/stop buffer was added to each well and the amount of phosphorylated (^33P) Poly(GT)biotin determined by counting (30 sec/well) in a microtiterplate scintillation counter.

[2] = target: Abl (h) (Homo sapiens, UniProt P00519); assay: Abl human kinase assay (glass-fiber filter); settings: test concentration of 10^−6M; read-out: C1 score (inhibition of Abl human)
Procedure: (§1) In the glass-fiber filter technology the activity of the kinase of interest is measured using an appropriate substrate that is incubated with the aforementioned kinase protein in the presence of (^33P) radiolabeled ATP. (^33P) Phosphorylation of the substrate is subsequently measured as radioactivity bound on a glass fiber-filter.
(§2) All kinases are pre-diluted to a 10× working concentration prior to addition into the assay. The composition of the dilution buffer for each kinase is detailed below.
(§3) (specific activity approx. 500 cpm/pmol, concentration as required). The reaction is initiated by the addition of the MgATP mix. After incubation for 40 minutes at room temperature, the reaction is stopped by the addition of 5 μl of a 3% phosphoric acid solution. 10 μl of the reaction is then spotted onto a P30 filtermat and washed three times for 5 minutes in 75 mM phosphoric acid and once in methanol prior to drying and scintillation counting.

[3] = target: cSRC (h) (Homo sapiens, UniProt P12931); assay: cSRC human kinase assay (glass-fiber filter); settings: test concentration of 10^−6M; read-out: C3 score (inhibition of cSRC human)
Procedure: (§4) The in vitro inhibition of a panel of kinases was assessed using either the glass-fiber filter technology as described by Davies, S. P. et al., Biochem J. […] In the glass-fiber filter technology the activity of the kinase of interest is measured using an appropriate substrate that is incubated with the aforementioned kinase protein in the presence of (^33P) radiolabeled ATP. (^33P) Phosphorylation of the substrate is subsequently measured as radioactivity bound on a glass fiber-filter. All kinases are pre-diluted to a 10× working concentration prior to addition into the assay. The composition of the dilution buffer for each kinase is detailed below. […] The reaction is initiated by the addition of the MgATP mix. […] 10 μl of the reaction is then spotted onto a P30 filtermat and washed three times for 5 minutes in 75 mM phosphoric acid and once in methanol prior to drying and scintillation counting.

[4] = target: Flt3 (h) (Homo sapiens, UniProt P36888); assay: Flt3 human kinase assay (glass-fiber filter); settings: test concentration of 10^−6M; read-out: C6 score (inhibition of Flt3 human)
Procedure: (§5) The in vitro inhibition of a panel of kinases was assessed using either the glass-fiber filter technology as described by Davies, S. P. et al., Biochem J. (2000), 351; p. 95-105.
as §1, §2
as §3, with “In a final reaction volume of 25 μl, Flt3 (h) (5-10 mU) is incubated with 8 mM MOPS pH 7.0, 0.2 mM EDTA, 50 μM […], 10 mM MgAcetate and [γ-^33P-ATP] (specific” for “(specific”

[5] = target: Fms (h) (Homo sapiens, UniProt P07333); assay: Fms human kinase assay (glass-fiber filter); settings: test concentration of 10^−6M; read-out: C7 score (inhibition of Fms human)
Procedure: as §5, §1, §2
as §3, with “In a final reaction volume of 25 μl, Fms (h) (5-10 mU) is incubated with 8 mM MOPS pH 7.0, 0.2 mM EDTA, 250 μM […], 10 mM MgAcetate and [γ-^33P-ATP] (specific” for “(specific”

[6] = target: Lck (h) (Homo sapiens, UniProt P06239); assay: Lck human kinase assay (glass-fiber filter); settings: test concentration of 10^−6M; read-out: C9 score (inhibition of Lck human)
Procedure: as §4, with “below. [table]” for “below.”

[7] = target: Lyn (h) (Homo sapiens, UniProt P07948); assay: Lyn human kinase assay (glass-fiber filter); settings: test concentration of 10^−6M; read-out: C10 score (inhibition of Lyn human)
Procedure: as §1, §2
as §3, with “In a final reaction volume of […] (h) (5-10 mU) is incubated with 50 mM Tris pH 7.5, 0.1 mM EGTA, 0.1 mM Na3VO4, 0.1% O-mercaptoethanol, 0.1 mg/ml poly(Glu, Tyr) 4:1, 10 mM MgAcetate and [γ-^33P-ATP] (specific” for “(specific”, “Filtennat A” for “P30 filtermat”

[8] = target: Yes (h) (Homo sapiens, UniProt P07947); assay: Yes human kinase assay (glass-fiber filter); settings: test concentration of 10^−6M; read-out: C11 score (inhibition of Yes human)
Procedure: as §1, §2
as §3, with “In a final reaction volume of 25 μl, Yes (h) (5-10 mU) is incubated with 8 mM MOPS pH 7.0, 0.2 mM EDTA, 0.1 mg/ml poly(Glu, Tyr) 4:1, 10 mM MgAcetate and [γ-^33P-ATP] (specific” for “(specific”, “[…],” for “cpm/pmol,”, “Filtermat A” for “P30 filtermat”

Chain of Yes (h) (P07947 whole entry): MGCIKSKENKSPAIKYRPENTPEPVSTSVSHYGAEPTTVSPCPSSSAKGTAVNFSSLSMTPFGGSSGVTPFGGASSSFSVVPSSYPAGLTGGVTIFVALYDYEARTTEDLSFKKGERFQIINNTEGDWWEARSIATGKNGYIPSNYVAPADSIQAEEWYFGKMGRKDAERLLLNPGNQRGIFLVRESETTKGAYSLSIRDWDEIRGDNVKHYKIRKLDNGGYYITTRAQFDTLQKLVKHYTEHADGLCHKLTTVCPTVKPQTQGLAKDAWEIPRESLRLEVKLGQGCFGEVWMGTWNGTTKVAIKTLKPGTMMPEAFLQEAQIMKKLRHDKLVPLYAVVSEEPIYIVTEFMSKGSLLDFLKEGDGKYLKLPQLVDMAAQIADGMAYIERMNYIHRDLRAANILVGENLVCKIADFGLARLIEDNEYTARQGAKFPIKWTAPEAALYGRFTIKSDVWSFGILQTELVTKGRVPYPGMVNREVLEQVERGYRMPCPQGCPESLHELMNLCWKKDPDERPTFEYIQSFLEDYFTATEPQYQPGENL
Chain of Fms (h) (P07333 20-972): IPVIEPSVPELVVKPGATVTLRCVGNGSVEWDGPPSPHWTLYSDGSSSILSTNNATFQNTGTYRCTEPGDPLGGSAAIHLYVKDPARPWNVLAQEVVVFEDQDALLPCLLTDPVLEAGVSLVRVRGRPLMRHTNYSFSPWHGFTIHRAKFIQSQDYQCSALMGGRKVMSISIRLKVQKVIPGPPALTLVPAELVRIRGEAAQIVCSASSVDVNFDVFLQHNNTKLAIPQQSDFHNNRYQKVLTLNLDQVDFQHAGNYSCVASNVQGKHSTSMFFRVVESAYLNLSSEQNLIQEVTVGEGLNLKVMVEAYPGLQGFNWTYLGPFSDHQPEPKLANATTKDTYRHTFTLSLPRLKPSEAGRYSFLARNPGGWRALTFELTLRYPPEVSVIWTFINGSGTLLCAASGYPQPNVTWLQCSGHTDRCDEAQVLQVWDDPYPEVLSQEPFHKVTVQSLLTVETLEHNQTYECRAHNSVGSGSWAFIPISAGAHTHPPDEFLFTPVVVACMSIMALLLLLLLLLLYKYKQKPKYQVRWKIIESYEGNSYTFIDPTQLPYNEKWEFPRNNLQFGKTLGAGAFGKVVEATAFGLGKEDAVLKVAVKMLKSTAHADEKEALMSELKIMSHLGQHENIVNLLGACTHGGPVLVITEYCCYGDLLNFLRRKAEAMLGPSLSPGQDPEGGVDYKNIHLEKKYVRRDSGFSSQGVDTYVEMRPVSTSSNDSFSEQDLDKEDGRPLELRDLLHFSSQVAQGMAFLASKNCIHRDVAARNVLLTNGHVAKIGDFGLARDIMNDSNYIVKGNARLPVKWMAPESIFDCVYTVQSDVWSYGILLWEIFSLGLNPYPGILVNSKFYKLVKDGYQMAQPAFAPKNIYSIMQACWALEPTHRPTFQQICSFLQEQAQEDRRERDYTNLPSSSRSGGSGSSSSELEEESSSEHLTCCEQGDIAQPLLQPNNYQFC
T1 sequence (P00533 712-979 limits assumed): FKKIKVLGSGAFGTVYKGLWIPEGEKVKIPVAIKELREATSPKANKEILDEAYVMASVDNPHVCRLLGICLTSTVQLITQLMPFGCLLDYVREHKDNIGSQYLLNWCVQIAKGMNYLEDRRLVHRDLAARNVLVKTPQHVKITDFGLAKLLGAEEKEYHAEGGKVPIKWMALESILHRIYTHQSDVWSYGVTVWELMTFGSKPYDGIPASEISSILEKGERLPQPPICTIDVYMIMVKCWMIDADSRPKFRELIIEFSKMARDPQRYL
Chain of Flt3 (h) (P36888 27-993): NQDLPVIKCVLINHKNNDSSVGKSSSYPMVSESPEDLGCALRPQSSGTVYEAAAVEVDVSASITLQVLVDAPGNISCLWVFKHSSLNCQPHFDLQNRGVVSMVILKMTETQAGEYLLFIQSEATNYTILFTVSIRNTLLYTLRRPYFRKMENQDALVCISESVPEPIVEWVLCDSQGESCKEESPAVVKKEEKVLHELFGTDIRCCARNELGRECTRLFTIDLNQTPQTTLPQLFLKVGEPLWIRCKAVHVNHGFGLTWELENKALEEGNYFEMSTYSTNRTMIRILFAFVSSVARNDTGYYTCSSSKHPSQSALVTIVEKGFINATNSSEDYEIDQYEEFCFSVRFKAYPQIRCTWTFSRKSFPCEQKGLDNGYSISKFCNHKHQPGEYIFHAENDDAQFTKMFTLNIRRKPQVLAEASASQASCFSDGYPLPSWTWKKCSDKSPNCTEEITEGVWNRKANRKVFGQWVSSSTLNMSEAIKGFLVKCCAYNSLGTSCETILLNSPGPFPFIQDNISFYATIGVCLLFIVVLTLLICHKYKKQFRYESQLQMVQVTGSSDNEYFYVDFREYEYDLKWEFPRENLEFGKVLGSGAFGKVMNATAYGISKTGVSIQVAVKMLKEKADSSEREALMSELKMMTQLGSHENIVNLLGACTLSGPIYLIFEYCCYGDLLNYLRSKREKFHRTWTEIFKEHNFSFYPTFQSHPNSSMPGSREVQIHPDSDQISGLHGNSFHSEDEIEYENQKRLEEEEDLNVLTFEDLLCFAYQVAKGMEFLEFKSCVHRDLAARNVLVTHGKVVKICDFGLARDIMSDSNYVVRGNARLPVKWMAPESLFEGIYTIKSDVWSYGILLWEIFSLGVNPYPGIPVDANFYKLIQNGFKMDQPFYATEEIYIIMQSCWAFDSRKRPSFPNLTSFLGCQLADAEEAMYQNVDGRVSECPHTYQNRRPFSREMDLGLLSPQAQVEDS
Chain of Lck (h) (P06239 whole entry): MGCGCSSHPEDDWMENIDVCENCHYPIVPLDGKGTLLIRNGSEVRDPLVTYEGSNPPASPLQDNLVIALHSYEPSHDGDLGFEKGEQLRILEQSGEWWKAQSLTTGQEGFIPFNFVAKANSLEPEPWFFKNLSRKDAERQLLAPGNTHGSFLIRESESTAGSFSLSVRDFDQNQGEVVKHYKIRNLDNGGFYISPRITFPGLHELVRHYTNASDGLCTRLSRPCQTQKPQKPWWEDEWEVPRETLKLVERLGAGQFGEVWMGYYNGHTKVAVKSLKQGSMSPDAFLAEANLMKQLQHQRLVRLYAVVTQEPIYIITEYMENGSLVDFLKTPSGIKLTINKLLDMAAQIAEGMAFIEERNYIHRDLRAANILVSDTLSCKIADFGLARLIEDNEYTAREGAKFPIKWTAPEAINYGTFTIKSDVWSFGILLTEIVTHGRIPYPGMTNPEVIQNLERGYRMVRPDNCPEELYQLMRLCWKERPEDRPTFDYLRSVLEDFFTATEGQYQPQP
Chain of cSRC (h) (P12931 whole entry): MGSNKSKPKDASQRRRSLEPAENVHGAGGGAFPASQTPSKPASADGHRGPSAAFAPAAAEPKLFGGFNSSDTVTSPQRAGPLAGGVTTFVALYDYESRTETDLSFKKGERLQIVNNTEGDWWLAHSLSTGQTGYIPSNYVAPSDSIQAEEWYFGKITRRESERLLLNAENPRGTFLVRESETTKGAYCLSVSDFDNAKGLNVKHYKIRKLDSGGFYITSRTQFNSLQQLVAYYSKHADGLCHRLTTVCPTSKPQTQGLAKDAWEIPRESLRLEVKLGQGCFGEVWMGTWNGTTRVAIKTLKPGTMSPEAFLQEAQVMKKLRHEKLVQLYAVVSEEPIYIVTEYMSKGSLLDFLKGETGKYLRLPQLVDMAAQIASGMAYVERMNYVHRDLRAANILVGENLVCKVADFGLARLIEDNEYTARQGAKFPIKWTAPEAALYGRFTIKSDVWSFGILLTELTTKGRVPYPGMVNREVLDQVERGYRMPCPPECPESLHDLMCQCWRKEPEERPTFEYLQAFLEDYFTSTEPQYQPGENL
Chain of Lyn (h) (P07948 whole entry): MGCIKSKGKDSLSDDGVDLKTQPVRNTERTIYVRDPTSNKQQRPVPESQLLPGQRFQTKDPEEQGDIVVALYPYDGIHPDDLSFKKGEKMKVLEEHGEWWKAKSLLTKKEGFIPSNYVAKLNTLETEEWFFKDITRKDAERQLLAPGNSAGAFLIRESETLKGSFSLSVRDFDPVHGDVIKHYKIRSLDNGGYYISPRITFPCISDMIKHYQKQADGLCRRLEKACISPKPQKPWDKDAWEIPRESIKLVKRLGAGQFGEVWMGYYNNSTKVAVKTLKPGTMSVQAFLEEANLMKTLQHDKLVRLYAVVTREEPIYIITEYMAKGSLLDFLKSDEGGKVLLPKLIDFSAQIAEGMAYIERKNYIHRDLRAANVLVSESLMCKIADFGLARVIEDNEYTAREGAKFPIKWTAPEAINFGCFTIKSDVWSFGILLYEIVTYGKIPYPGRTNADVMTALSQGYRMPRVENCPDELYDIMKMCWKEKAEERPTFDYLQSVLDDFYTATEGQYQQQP

Compound | IC50 [1] [nM] | further results
O=C1NCc2cccc(c2)Nc2ccnc(n2)Nc2cccc1c2 [Compound 24, 2,4,8,15,23-pentaazatetracyclo[15.3.1.1~3,7~.1~9,13~]tricosa-1(21),3,5,7(23),9,11,13(22),17,19-nonaen-16-one] | – | inhibition at 1 µM [2]: 30 to 60%; inhibition at 1 µM [3]: 10 to 30%; inhibition at 1 µM [4]: 60 to 80%; inhibition at 1 µM [5]: 10 to 30%; inhibition at 1 µM [6]: 30 to 60%; inhibition at 1 µM [7]: 10 to 30%; inhibition at 1 µM [8]: 10 to 30%
O=C1COc2cccc(c2)Nc2nccc(n2)Nc2cccc(c2)OCCCN1 [Compound 29, 14,21-dioxa-2,4,8,18,28-pentaazatetracyclo[20.3.1.1~3,7~.1~9,13~]octacosa-1(26),3,5,7(28),9,11,13(27),22,24-nonaen-19-one] | – | inhibition at 1 µM [3]: 10 to 30%; inhibition at 1 µM [4]: > 80%; inhibition at 1 µM [5]: 10 to 30%; inhibition at 1 µM [6]: 30 to 60%; inhibition at 1 µM [8]: 60 to 80%
O=C1CCCCCCNC(=O)c2cccc(c2)Nc2cc(ncn2)Nc2cccc(c2)CN1 [Compound 57, 2,4,6,8,15,23-hexaazatetracyclo[23.3.1.1~3,7~.1~9,13~]hentriaconta-1(29),3,5,7(31),9,11,13(30),25,27-nonaene-14,22-dione] | – | inhibition at 1 µM [4]: 30 to 60%
CC(C)C1NC(=O)c2cccc(c2)Nc2cc(ncn2)Nc2cccc(c2)CNC(=O)CNC1=O (stereo not shown) [Compound 60] | – | inhibition at 1 µM [5]: 10 to 30%; inhibition at 1 µM [8]: 10 to 30%
O=C1CNC(=O)CNC(=O)c2cccc(c2)Nc2cc(ncn2)Nc2cccc(c2)CN1 [Compound 61] | – | inhibition at 1 µM [5]: 60 to 80%; inhibition at 1 µM [8]: 10 to 30%
CCN1CCNC(=O)C2CN(CCO2)C(=O)COc2ccc(cc2)Nc2cc(ncn2)Nc2cccc(c2)C1 (stereo not shown) [Compound 136] | < 1000 | –
O=C1COc2cccc(c2)Nc2cc(ncn2)Nc2cccc(c2)OCCCCCNC(=O)C(Cc2cccnc2)N1 (stereo not shown) [Compound 180] | 1000 to 10000 | –
CN1Cc2cccc(c2)Nc2cc(ncn2)Nc2ccccc2OCCCCCNC(=O)CCN2CCC1CC2 [Compound 186] | 1000 to 10000 | –
CCN1CC(=O)NCCCCCOc2ccccc2Nc2cc(ncn2)Nc2cccc(c2)C1 [Compound 190] | 1000 to 10000 | –
O=C1CCN(CCN2CCOCC2)Cc2cccc(c2)Nc2cc(ncn2)Nc2cccc(c2)OCCCCN1 [Compound 195] | 1000 to 10000 | –
CN1Cc2cccc(c2)Nc2cc(ncn2)Nc2cccc(c2)OCCCCNC(=O)CCN2CCC1CC2 [Compound 196] | 1000 to 10000 | –

More lines, main results first:

IC50 [1] [nM] | Compound | further results
1000 to 10000 | COc1ccc2cc1OCCNC(=O)C1CCCCN1Cc1cc(ccc1Cl)Nc1cc(ncn1)N2 (racemic) [Compound 145] | –
1000 to 10000 | COc1ccc2cc1OCCNC(=O)CCCN(C)Cc1cc(ccc1Cl)Nc1cc(ncn1)N2 [Compound 111] | –
1000 to 10000 | CCN1CCC(=O)NCCOc2cc(ccc2OC)Nc2cc(ncn2)Nc2ccc(Cl)c(c2)C1 [Compound 113] | –
1000 to 10000 | COc1ccc2cc1OCCNC(=O)CCN1CCC(CC1)N(C)Cc1cc(ccc1Cl)Nc1cc(ncn1)N2 [Compound 127] | –
1000 to 10000 | CCN1CCNC(=O)C(CC2CCCCC2)NC(=O)COc2ccc(cc2)Nc2cc(ncn2)Nc2cccc(c2)C1 (stereo not shown) [Compound 135] | –
1000 to 10000 | COc1ccc2cc1OCCNC(=O)C1CCCN(C1)C(=O)COc1ccc(cc1)Nc1cc(ncn1)N2 (stereo not shown) [Compound 140] | –
1000 to 10000 | COc1ccc2cc1OCCNC(=O)CC(CC(C)C)NC(=O)COc1ccc(cc1)Nc1cc(ncn1)N2 (stereo not shown) [Compound 141] | –
1000 to 10000 | COc1ccc2cc1OCCNC(=O)C(CCSC)NC(=O)COc1cccc(c1)Nc1cc(ncn1)N2 (stereo not shown) [Compound 173] | –
1000 to 10000 | COCC1NC(=O)COc2cccc(c2)Nc2cc(ncn2)Nc2cccc(c2)OCCCCCNC1=O (stereo not shown) [Compound 179] | –
1000 to 10000 | COc1ccc2cc1OCCNC(=O)C1CN(CCC1O)Cc1cc(ccc1Cl)Nc1cc(ncn1)N2 (stereo not shown) [Compound 182] | –
1000 to 10000 | CCN1CC(=O)NCCOc2cc(ccc2OC)Nc2cc(ncn2)Nc2ccc(Cl)c(c2)C1 [Compound 183] | –
